Reference: ChEMBL document CHEMBL4002569, “Improved anticancer and antiparasitic activity of new lawsone Mannich bases” (Eur J Med Chem, 2017)
Calls of active or inactive are those of the source. The rule behind the calls is not given here.

What was measured:
518A2 [1] = test: Induction of reactive oxygen species generation in human 518A2 cells at 0.5 uM after 24 hrs by NBT assay relative to control; format: functional
PANC-1 = test: Antiproliferative activity against human PANC1 cells after 72 hrs by MTT assay; format: functional, cell-based; conditions: PANC-1, 72 h
HeLa [2] = test: Cytotoxicity against human HeLa cells assessed as effect on cytoskeleton at 10 uM after 1 to 9 hrs by DAPI staining-based fluorescence microscopic method; format: cell-based
[3] = system: Trypanosoma brucei brucei; test: Antitrypanosomal activity against bloodstream trypomastigote form of Trypanosoma brucei brucei 65.3 […] after 72 hrs by Alamar Blue assay; format: functional, cell-based; conditions: Trypanosoma brucei, 65.3, 72 h
HeLa [4] = test: Cytotoxicity against human HeLa cells assessed as effect on cell viability at 10 uM after 1 to 9 hrs by DAPI staining-based fluorescence microscopic method
[5] = system: Trypanosoma brucei brucei; test: Antitrypanosomal activity against bloodstream trypomastigote form of Trypanosoma brucei brucei 65.3 assessed as deformation of microtubule cytoskeleton at 1 uM after 0.5 to 24 hrs by DAPI staining-based fluorescence microscopic method; format: functional
518A2 [6] = test: Induction of reactive oxygen species generation in human 518A2 cells at 0.1 uM after 24 hrs by NBT assay relative to control; format: functional
[7] = system: Trypanosoma brucei brucei; test: Antitrypanosomal activity against bloodstream trypomastigote form of Trypanosoma brucei brucei 65.3 assessed as decrease in parasite motility at 1 uM after 0.5 to 24 hrs by DAPI staining-based fluorescence microscopic method relative to control; format: functional
518A2 [8] = test: Antiproliferative activity against human 518A2 cells after 72 hrs by MTT assay; format: functional, cell-based; conditions: 518A2, 72 h
PC-3 [9] = test: Antiproliferative activity against human PC3 cells at 1 to 50 uM after 96 hrs by MTT assay; format: functional, cell-based
BXPC-3 [10] = test: Antiproliferative activity against human BxPC3 cells at 1 to 50 uM after 96 hrs by MTT assay; format: functional, cell-based
HCT-116 = test: Antiproliferative activity against human HCT116 cells after 72 hrs by MTT assay; format: functional, cell-based; conditions: HCT-116, 72 h
MDA-MB-231 [11] = test: Antiproliferative activity against human MDA-MB-231 cells at 1 to 50 uM after 96 hrs by MTT assay; format: functional, cell-based
KB-V1 = test: Antiproliferative activity against vinblastine-resistant human KBV1 cells after 72 hrs by MTT assay; format: functional, cell-based; conditions: KB-V1, 72 h
[12] = Selectivity index, ratio of IC50 for human MCF10A cells to IC50 for human BxPC3 cells; format: functional
[13] = Selectivity index, ratio of IC50 for human MCF10A cells to IC50 for human PANC1 cells; format: functional
[14] = system: Trypanosoma brucei brucei; test: Antitrypanosomal activity against bloodstream trypomastigote form of Trypanosoma brucei brucei 65.3 assessed as decrease in parasite viability at 1 to 10 uM after 1 hr by DAPI staining-based fluorescence microscopic method; format: functional
BXPC-3 [15] = test: Antiproliferative activity against human BxPC3 cells after 96 hrs by MTT assay; format: functional, cell-based; conditions: BXPC-3, 96 h
MDA-MB-231 [16] = test: Antiproliferative activity against human MDA-MB-231 cells after 96 hrs by MTT assay; format: functional, cell-based; conditions: MDA-MB-231, 96 h
Entamoeba histolytica [17] = test: Antiamoebic activity against Entamoeba histolytica assessed as growth inhibition at 25 ug/ml after 24 hrs by trypan blue dye-based hemocytometer relative to control; format: functional; conditions: read-out: GI
Entamoeba histolytica [18] = test: Antiamoebic activity against Entamoeba histolytica assessed as growth inhibition at 50 ug/ml after 72 hrs by trypan blue dye-based hemocytometer relative to control; format: functional; conditions: read-out: GI
Entamoeba histolytica [19] = test: Antiamoebic activity against Entamoeba histolytica assessed as growth inhibition at 100 ug/ml after 48 hrs by trypan blue dye-based hemocytometer relative to control; format: functional; conditions: read-out: GI
[20] = Selectivity index, ratio of IC50 for human MCF10A cells to IC50 for human 518A2 cells; format: functional
MCF-10A = test: Antiproliferative activity against human MCF10A cells at 50 uM after 96 hrs by MTT assay; format: cell-based
Entamoeba histolytica [21] = test: Antiamoebic activity against Entamoeba histolytica assessed as growth inhibition at 50 ug/ml after 24 hrs by trypan blue dye-based hemocytometer relative to control; format: functional; conditions: read-out: GI
[22] = system: Trypanosoma brucei brucei; test: Antitrypanosomal activity against bloodstream trypomastigote form of Trypanosoma brucei brucei 65.3 assessed as deformation of microtubule cytoskeleton at 1 to 10 uM after 3 to 6 hrs by DAPI staining-based fluorescence microscopic method; format: functional
PC-3 [23] = test: Antiproliferative activity against human PC3 cells after 96 hrs by MTT assay; format: functional, cell-based; conditions: PC-3, 96 h
Entamoeba histolytica [24] = test: Antiamoebic activity against Entamoeba histolytica assessed as growth inhibition at 25 ug/ml after 72 hrs by trypan blue dye-based hemocytometer relative to control; format: functional; conditions: read-out: GI
[25] = Selectivity index, ratio of IC50 for human MCF10A cells to IC50 for human MDA-MB-231 cells; format: functional
[26] = Selectivity index, ratio of IC50 for human MCF10A cells to IC50 for vinblastine-resistant human KBV1 cells; format: functional
[27] = Selectivity index, ratio of IC50 for human MCF10A cells to IC50 for human HCT116 cells; format: functional
Entamoeba histolytica [28] = test: Antiamoebic activity against Entamoeba histolytica assessed as growth inhibition at 25 ug/ml after 48 hrs by trypan blue dye-based hemocytometer relative to control; format: functional; conditions: read-out: GI
Entamoeba histolytica [29] = test: Antiamoebic activity against Entamoeba histolytica assessed as growth inhibition at 100 ug/ml after 24 hrs by trypan blue dye-based hemocytometer relative to control; format: functional; conditions: read-out: GI
Entamoeba histolytica [30] = test: Antiamoebic activity against Entamoeba histolytica assessed as growth inhibition at 100 ug/ml after 72 hrs by trypan blue dye-based hemocytometer relative to control; format: functional; conditions: read-out: GI
[31] = Selectivity index, ratio of IC50 for human MCF10A cells to IC50 for human PC3 cells; format: functional
Entamoeba histolytica [32] = test: Antiamoebic activity against Entamoeba histolytica assessed as growth inhibition at 50 ug/ml after 48 hrs by trypan blue dye-based hemocytometer relative to control; format: functional; conditions: read-out: GI
[33] = system: Trypanosoma brucei brucei; test: Antitrypanosomal activity against bloodstream trypomastigote form of Trypanosoma brucei brucei 65.3 assessed as deformation of microtubule cytoskeleton at 10 uM after 3 to 6 hrs by DAPI staining-based fluorescence microscopic method; format: functional
PC-3 [34] = test: Antiproliferative activity against human PC3 cells at <25 uM after 96 hrs by MTT assay; format: functional, cell-based
BXPC-3 [35] = test: Antiproliferative activity against human BxPC3 cells at <25 uM after 96 hrs by MTT assay; format: functional, cell-based
MDA-MB-231 [36] = test: Antiproliferative activity against human MDA-MB-231 cells at <25 uM after 96 hrs by MTT assay; format: functional, cell-based
PC-3 [37] = test: Antiproliferative activity against human PC3 cells at >10 to 25 uM after 96 hrs by MTT assay; format: functional, cell-based
BXPC-3 [38] = test: Antiproliferative activity against human BxPC3 cells at <10 uM after 96 hrs by MTT assay; format: functional, cell-based
PC-3 [39] = test: Antiproliferative activity against human PC3 cells at <10 uM after 96 hrs by MTT assay; format: functional, cell-based
BXPC-3 [40] = test: Antiproliferative activity against human BxPC3 cells at >10 to 25 uM after 96 hrs by MTT assay; format: functional, cell-based
MDA-MB-231 [41] = test: Antiproliferative activity against human MDA-MB-231 cells at >10 to 25 uM after 96 hrs by MTT assay; format: functional, cell-based
MDA-MB-231 [42] = test: Antiproliferative activity against human MDA-MB-231 cells at <10 uM after 96 hrs by MTT assay; format: functional, cell-based

In the case of CCCCCCCCCCCCNC(C1=C(O)C(=O)c2ccccc2C1=O)c1ccccn1 (stereo not drawn), the Activity (518A2 [1]) is reported as 70%, the IC50 (PANC-1) is reported as 1.79 µM and the Activity (HeLa [2]) is reported as “Non-Toxic”. The IC50 [3] was 0.646 µM, the Activity (HeLa [4]) was “Non-Toxic” and the Activity [5] was “Active”. For the same compound, the Activity (518A2 [6]) was 50%, the Activity [7] was “Active” and the IC50 (518A2 [8]) was 2.57 µM. The “growth inhibition (GI)” value (PC-3 [9]) was “Active”, the “growth inhibition (GI)” value (BXPC-3 [10]) was “Active” and the IC50 (HCT-116) was 3.46 µM. For the same compound, the “growth inhibition (GI)” value (MDA-MB-231 [11]) was “Active” and the IC50 (KB-V1) was 0.32 µM.
For CCCCCCCCCCCCCCCCNC(C1=C(O)C(=O)c2ccccc2C1=O)c1ccccn1 (stereo not drawn), the “Ratio IC50” value [12] was over 61, the “Ratio IC50” value [13] was over 22 and the Activity (518A2 [1]) was “Active”. For the same compound, the Activity [14] was “inactive”, the IC50 (BXPC-3 [15]) was 0.82 µM and the IC50 (MDA-MB-231 [16]) was 1.1 µM. For the same compound, the inhibition of growth at 25 µg/mL (Entamoeba histolytica [17]) was 60%, the IC50 (PANC-1) was 2.19 µM and the Activity (HeLa [2]) was “Non-Toxic”. The IC50 [3] was 0.303 µM, the inhibition of growth at 50 µg/mL (Entamoeba histolytica [18]) was 85.3% and the inhibition of growth at 100 µg/mL (Entamoeba histolytica [19]) was 80.9%. For the same compound, the Activity (HeLa [4]) was “Non-Toxic”, the “Ratio IC50” value [20] was over 35 and the “growth inhibition (GI)” value (MCF-10A) was “Non-Toxic”. For the same compound, the inhibition of growth at 50 µg/mL (Entamoeba histolytica [21]) was 66.6%, the Activity [22] was “Active” and the IC50 (PC-3 [23]) was 0.67 µM. The inhibition of growth at 25 µg/mL (Entamoeba histolytica [24]) was 70.6%, the “Ratio IC50” value [25] was over 46 and the “Ratio IC50” value [26] was over 60. For the same compound, the Activity (518A2 [6]) was 50%, the “Ratio IC50” value [27] was over 24 and the inhibition of growth at 25 µg/mL (Entamoeba histolytica [28]) was 66%. For the same compound, the inhibition of growth at 100 µg/mL (Entamoeba histolytica [29]) was 77.8%, the inhibition of growth at 100 µg/mL (Entamoeba histolytica [30]) was 82.8% and the IC50 (518A2 [8]) was 1.41 µM. For the same compound, the “Ratio IC50” value [31] was over 75, the IC50 (HCT-116) was 2.08 µM and the IC50 (KB-V1) was 0.83 µM. It also gave an inhibition of growth at 50 µg/mL (Entamoeba histolytica [32]) of 82.1%.
CCCCCCCNC(C1=C(O)C(=O)c2ccccc2C1=O)c1ccccn1 (stereo not drawn) showed an Activity (518A2 [1]) of 70%, an IC50 (PANC-1) of 6.41 µM and an IC50 [3] of 3.73 µM. The Activity (518A2 [6]) was 50%, the Activity [33] was “inactive” and the IC50 (518A2 [8]) was 2.58 µM. The IC50 (HCT-116) was 6.39 µM and the IC50 (KB-V1) was 0.41 µM.
In the case of CCCCCCCCCCCCCCCCNC(C1=C(O)C(=O)c2ccccc2C1=O)c1ccc(O)c(OC)c1 (stereo not drawn), the IC50 (PANC-1) is reported as 7.94 µM, the IC50 (518A2 [8]) is reported as 12.2 µM and the “growth inhibition (GI)” value (PC-3 [9]) is reported as “Active”. The “growth inhibition (GI)” value (BXPC-3 [10]) was “Active”, the IC50 (HCT-116) was 11.4 µM and the “growth inhibition (GI)” value (MDA-MB-231 [11]) was “Active”. For the same compound, the IC50 (KB-V1) was 16.8 µM.
With COc1cc(C(NCc2ccccc2)C2=C(O)C(=O)c3ccccc3C2=O)ccc1O (stereo not drawn) the “growth inhibition (GI)” value (PC-3 [34]) was “inactive”, the “growth inhibition (GI)” value (BXPC-3 [35]) was “inactive” and the “growth inhibition (GI)” value (MDA-MB-231 [36]) was “inactive”.
For COc1cc(C(NCc2ccccn2)C2=C(O)C(=O)c3ccccc3C2=O)ccc1O (stereo not drawn), the “growth inhibition (GI)” value (PC-3 [34]) was “inactive”, the “growth inhibition (GI)” value (BXPC-3 [35]) was “inactive” and the “growth inhibition (GI)” value (MDA-MB-231 [36]) was “inactive”.
For CCCCCCCCCCCCNC(C1=C(O)C(=O)c2ccccc2C1=O)c1ccc(F)c(F)c1 (stereo not drawn), the “growth inhibition (GI)” value (PC-3 [37]) was “Active”, the “growth inhibition (GI)” value (BXPC-3 [38]) was “inactive” and the “growth inhibition (GI)” value (PC-3 [39]) was “inactive”. For the same compound, the “growth inhibition (GI)” value (BXPC-3 [40]) was “Active”, the “growth inhibition (GI)” value (MDA-MB-231 [41]) was “Active” and the “growth inhibition (GI)” value (MDA-MB-231 [42]) was “inactive”.
For CCCCCCCCCCCCCCCCNC(C1=C(O)C(=O)c2ccccc2C1=O)c1ccc(F)c(F)c1 (stereo not drawn), the “growth inhibition (GI)” value (PC-3 [37]) was “Active”, the “growth inhibition (GI)” value (BXPC-3 [38]) was “inactive” and the “growth inhibition (GI)” value (PC-3 [39]) was “inactive”. For the same compound, the “growth inhibition (GI)” value (BXPC-3 [40]) was “Active”, the “growth inhibition (GI)” value (MDA-MB-231 [41]) was “Active” and the “growth inhibition (GI)” value (MDA-MB-231 [42]) was “inactive”.
